Assay results from patent US12344600B2, “c-Myc mRNA translation modulators and uses thereof in the treatment of cancer” (Anima Biotech Inc., priority 2022, dated 2025).

System: c-Myc
Assay: c-Myc immunofluorescence assay
Format: cell-based, human
Conditions: A549 cells, 24 hours, anti-c-Myc immunofluorescence
Outline: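 Read-out is imaged c-Myc immunofluorescence, nucleus-segmented, in A549 lung carcinoma cells exposed to compound dose series for 24 h after 48 h growth. Fixation 4% paraformaldehyde, Triton permeabilization, antibody staining at room temperature; EC50 from logistic fit of signal versus concentration.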

## CC(=O)Nc1ccc(-c2noc(N3CCC(C(=O)NCC4CCN(Cc5ccc(C)cc5)C4)CC3)n2)cc1 (stereo not shown) [Compound 184, 1-(3-(4-acetamidophenyl)-1,2,4-oxadiazol-5-yl)-N-((1-(4-methylbenzyl)pyrrolidin-3-yl)methyl)piperidine-4-carboxamide]
  Myc Efficacy (−LogEC50): + (+ >3 and <5)

## COc1ccc(-c2noc(N3CCC(C(=O)NCC4CCN(Cc5ccc(C)cc5)C4)CC3)n2)nc1 (stereo not shown) [Compound 185, 1-(3-(5-methoxypyridin-2-yl)-1,2,4-oxadiazol-5-yl)-N-((1-(4-methylbenzyl)pyrrolidin-3-yl)methyl)piperidine-4-carboxamide]
  Myc Efficacy (−LogEC50): ++ (++ ≥5 and <6)

## Cc1ccc(CN2CCC(CNC(=O)C3CCN(c4nc(-c5cccc(C)c5)no4)CC3)C2)cc1 (stereo not shown) [Compound 186, N-((1-(4-methylbenzyl)pyrrolidin-3-yl)methyl)-1-(3-(m-tolyl)-1,2,4-oxadiazol-5-yl)piperidine-4-carboxamide]
  Myc Efficacy (−LogEC50): ++ (++ ≥5 and <6)

## COc1cccc(-c2noc(N3CCC(C(=O)NCC4CCN(Cc5ccc(C)cc5)C4)CC3)n2)c1 (stereo not shown) [Compound 187, 1-(3-(3-methoxyphenyl)-1,2,4-oxadiazol-5-yl)-N-((1-(4-methylbenzyl)pyrrolidin-3-yl)methyl)piperidine-4-carboxamide]
  Myc Efficacy (−LogEC50): ++ (++ ≥5 and <6)

## Cc1ccc(CN2CCC(CNC(=O)C3CCN(c4nc(-c5ccccc5C)no4)CC3)C2)cc1 (stereo not shown) [Compound 188, N-((1-(4-methylbenzyl)pyrrolidin-3-yl)methyl)-1-(3-(o-tolyl)-1,2,4-oxadiazol-5-yl)piperidine-4-carboxamide]
  Myc Efficacy (−LogEC50): ++ (++ ≥5 and <6)

## COc1ccccc1-c1noc(N2CCC(C(=O)NCC3CCN(Cc4ccc(C)cc4)C3)CC2)n1 (stereo not shown) [Compound 189, 1-(3-(2-methoxyphenyl)-1,2,4-oxadiazol-5-yl)-N-((1-(4-methylbenzyl)pyrrolidin-3-yl)methyl)piperidine-4-carboxamide]
  Myc Efficacy (−LogEC50): + (+ >3 and <5)

## COc1ccc(-c2noc(N3CCN(C(=O)N4CCC(OC)CC4)CC3)n2)cc1 [Compound 190, (4-(3-(4-methoxyphenyl)-1,2,4-oxadiazol-5-yl)piperazin-1-yl)(4-methoxypiperidin-1-yl)methanone]
  Myc Efficacy (−LogEC50): + (+ >3 and <5)

## CNC(=O)N1CCN(c2nc(-c3ccc(OC)cc3)no2)CC1 [Compound 191, 4-(3-(4-methoxyphenyl)-1,2,4-oxadiazol-5-yl)-N-methylpiperazine-1-carboxamide]
  Myc Efficacy (−LogEC50): + (+ >3 and <5)

## COc1ccc(-c2noc(N3CCC(C(=O)Nc4ccc(Cl)cc4)CC3)n2)cc1 [Compound 192, N-(4-chlorophenyl)-1-(3-(4-methoxyphenyl)-1,2,4-oxadiazol-5-yl)piperidine-4-carboxamide]
  Myc Efficacy (−LogEC50): + (+ >3 and <5)

## COc1ccc(-c2noc(N3CCN(C(=O)Nc4ccc(Cl)cc4)CC3)n2)cc1 [Compound 193, N-(4-chlorophenyl)-4-(3-(4-methoxyphenyl)-1,2,4-oxadiazol-5-yl)piperazine-1-carboxamide]
  Myc Efficacy (−LogEC50): ++ (++ ≥5 and <6)

## COc1ccc(-c2noc(N3CCN(C(=O)Nc4cccc(Cl)c4)CC3)n2)cc1 [Compound 194, N-(3-chlorophenyl)-4-(3-(4-methoxyphenyl)-1,2,4-oxadiazol-5-yl)piperazine-1-carboxamide]
  Myc Efficacy (−LogEC50): + (+ >3 and <5)

## COc1ccc(-c2noc(N3CCN(C(=O)Nc4ccccc4Cl)CC3)n2)cc1 [Compound 195, N-(2-chlorophenyl)-4-(3-(4-methoxyphenyl)-1,2,4-oxadiazol-5-yl)piperazine-1-carboxamide]
  Myc Efficacy (−LogEC50): + (+ >3 and <5)

## COc1ccc(-c2coc(N3CCC(C(=O)NCC4CCN(Cc5ccc(C)cc5)C4)CC3)n2)cc1 (stereo not shown) [Compound 196, 1-(4-(4-methoxyphenyl)oxazol-2-yl)-N-((1-(4-methylbenzyl)pyrrolidin-3-yl)methyl)piperidine-4-carboxamide]
  Myc Efficacy (−LogEC50): ++ (++ ≥5 and <6)

## COc1ccc(-c2noc(C3CCC(C(=O)NCC4CCN(CCO)C4)CC3)n2)cc1 (stereo not shown) [Compound 197, (1r,4r)-N-((1-(2-hydroxyethyl)pyrrolidin-3-yl)methyl)-4-(3-(4-methoxyphenyl)-1,2,4-oxadiazol-5-yl)cyclohexane-1-carboxamide]
  Myc Efficacy (−LogEC50): + (+ >3 and <5)

## Cc1ccc(CN2CCC(CNC(=O)C3CCN(c4nc(-c5cccc(C#N)c5)no4)CC3)C2)cc1 (stereo not shown) [Compound 198, 1-(3-(3-cyanophenyl)-1,2,4-oxadiazol-5-yl)-N-((1-(4-methylbenzyl)pyrrolidin-3-yl)methyl)piperidine-4-carboxamide]
  Myc Efficacy (−LogEC50): ++ (++ ≥5 and <6)

## Cc1ccc(CN2CCC(CNC(=O)C3CCN(c4nc(-c5cccc(O)c5)no4)CC3)C2)cc1 (stereo not shown) [Compound 199, 1-(3-(3-hydroxyphenyl)-1,2,4-oxadiazol-5-yl)-N-((1-(4-methylbenzyl)pyrrolidin-3-yl)methyl)piperidine-4-carboxamide]
  Myc Efficacy (−LogEC50): + (+ >3 and <5)

## O=C(NCc1cccnc1)C1CCN(c2nc(-c3ccncc3)no2)CC1 [Compound 200, N-(pyridin-3-ylmethyl)-1-(3-(pyridin-4-yl)-1,2,4-oxadiazol-5-yl)piperidine-4-carboxamide]
  Myc Efficacy (−LogEC50): + (+ >3 and <5)

## COc1ccc(-c2coc(N3CCC(C(=O)NCc4cccnc4)CC3)n2)cc1 [Compound 201, 1-(4-(4-methoxyphenyl)oxazol-2-yl)-N-(pyridin-3-ylmethyl)piperidine-4-carboxamide]
  Myc Efficacy (−LogEC50): + (+ >3 and <5)

## O=C(C1CCN(c2nc(-c3ccncc3)no2)CC1)N1CCOCC1 [Compound 202, morpholino(1-(3-(pyridin-4-yl)-1,2,4-oxadiazol-5-yl)piperidin-4-yl)methanone]
  Myc Efficacy (−LogEC50): + (+ >3 and <5)

## COc1ccc(-c2coc(N3CCC(C(=O)N4CCOCC4)CC3)n2)cc1 [Compound 203, (1-(4-(4-methoxyphenyl)oxazol-2-yl)piperidin-4-yl)(morpholino)methanone]
  Myc Efficacy (−LogEC50): + (+ >3 and <5)

## COc1ccc(-c2noc(N3CCC(C(=O)N4CCN(C)CC4)CC3)n2)cc1 [Compound 204, (1-(3-(4-methoxyphenyl)-1,2,4-oxadiazol-5-yl)piperidin-4-yl)(4-methylpiperazin-1-yl)methanone]
  Myc Efficacy (−LogEC50): + (+ >3 and <5)

## COc1ccc(-c2noc(N3CCC(C(=O)N4CCN(c5ccccc5)CC4)CC3)n2)cc1 [Compound 205, (1-(3-(4-methoxyphenyl)-1,2,4-oxadiazol-5-yl)piperidin-4-yl)(4-phenylpiperazin-1-yl)methanone]
  Myc Efficacy (−LogEC50): + (+ >3 and <5)

## COc1ccc(-c2noc(N3CCN(C(=O)NCC4CCN(C)C4)CC3)n2)cc1 (stereo not shown) [Compound 206, 4-(3-(4-methoxyphenyl)-1,2,4-oxadiazol-5-yl)-N-((1-methylpyrrolidin-3-yl)methyl)piperazine-1-carboxamide]
  Myc Efficacy (−LogEC50): + (+ >3 and <5)

## COc1ccc(-c2noc(N3CCN(C(=O)NCCCN4CCC(Cc5ccccc5)CC4)CC3)n2)cc1 [Compound 207, N-(3-(4-benzylpiperidin-1-yl)propyl)-4-(3-(4-methoxyphenyl)-1,2,4-oxadiazol-5-yl)piperazine-1-carboxamide]
  Myc Efficacy (−LogEC50): +++ (+++ ≥6)

## COc1ccc(-c2noc(N3CCN(C(=O)NCCCN4CCC(C)CC4)CC3)n2)cc1 [Compound 208, 4-(3-(4-methoxyphenyl)-1,2,4-oxadiazol-5-yl)-N-(3-(4-methylpiperidin-1-yl)propyl)piperazine-1-carboxamide]
  Myc Efficacy (−LogEC50): ++ (++ ≥5 and <6)

## COc1ccc(-c2noc(N3CCN(C(=O)Nc4ccccc4)CC3)n2)cc1 [Compound 209, 4-(3-(4-methoxyphenyl)-1,2,4-oxadiazol-5-yl)-N-phenylpiperazine-1-carboxamide]
  Myc Efficacy (−LogEC50): + (+ >3 and <5)

## COc1ccc(-c2noc(N3CCC(C(=O)Nc4ccc(C)cc4)CC3)n2)cc1 [Compound 210, 1-(3-(4-methoxyphenyl)-1,2,4-oxadiazol-5-yl)-N-(p-tolyl)piperidine-4-carboxamide]
  Myc Efficacy (−LogEC50): + (+ >3 and <5)

## COc1ccc(-c2noc(N3CCC(C(=O)Nc4cccc(C)c4)CC3)n2)cc1 [Compound 211, 1-(3-(4-methoxyphenyl)-1,2,4-oxadiazol-5-yl)-N-(m-tolyl)piperidine-4-carboxamide]
  Myc Efficacy (−LogEC50): + (+ >3 and <5)

## COc1ccc(-c2noc(N3CCC(C(=O)Nc4cccc(Cl)c4)CC3)n2)cc1 [Compound 212, N-(3-chlorophenyl)-1-(3-(4-methoxyphenyl)-1,2,4-oxadiazol-5-yl)piperidine-4-carboxamide]
  Myc Efficacy (−LogEC50): + (+ >3 and <5)

## COc1ccc(-c2noc(N3CCC(C(=O)Nc4ccccc4C)CC3)n2)cc1 [Compound 213, 1-(3-(4-methoxyphenyl)-1,2,4-oxadiazol-5-yl)-N-(o-tolyl)piperidine-4-carboxamide]
  Myc Efficacy (−LogEC50): + (+ >3 and <5)

## COc1ccc(-c2noc(N3CCC(c4nc5ccccc5[nH]4)CC3)n2)cc1 [Compound 214, 5-(4-(1H-benzo[d]imidazol-2-yl)piperidin-1-yl)-3-(4-methoxyphenyl)-1,2,4-oxadiazole]
  Myc Efficacy (−LogEC50): + (+ >3 and <5)

## COc1ccc(-c2noc(C3CCC(C(=O)NCC4CCN(CCO)C4)CC3)n2)cc1 (stereo not shown) [Compound 215, (1s,4s)-N-((1-(2-hydroxyethyl)pyrrolidin-3-yl)methyl)-4-(3-(4-methoxyphenyl)-1,2,4-oxadiazol-5-yl)cyclohexane-1-carboxamide]
  Myc Efficacy (−LogEC50): + (+ >3 and <5)

## COc1ccc(-c2noc(N3CCN(C(=O)N4CCC(Oc5ccccc5)CC4)CC3)n2)cc1 [Compound 216, (4-(3-(4-methoxyphenyl)-1,2,4-oxadiazol-5-yl)piperazin-1-yl)(4-phenoxypiperidin-1-yl)methanone]
  Myc Efficacy (−LogEC50): + (+ >3 and <5)

## COc1ccc(-c2noc(N3CCC(C(=O)NCC4CCN(C)CC4)CC3)n2)cc1 [Compound 217, 1-(3-(4-methoxyphenyl)-1,2,4-oxadiazol-5-yl)-N-((1-methylpiperidin-4-yl)methyl)piperidine-4-carboxamide]
  Myc Efficacy (−LogEC50): − (− ≤3)
